According to PubChem BioAssay (NCI):
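48-hour exposure; five concentrations; linearly interpolated endpoints. TGI is the concentration that stops growth completely.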

Experiments:
Experiment in all cases: growth of human tumour cells (NCI), 48 h
OVCAR-8 ovarian = system: OVCAR-8 ovarian
LOX IMVI melanoma = system: LOX IMVI melanoma
MOLT-4 leukemia = system: MOLT-4 leukemia
SNB-19 CNS = system: SNB-19 CNS
DMS 114 small cell lung = system: DMS 114 small cell lung
SK-MEL-2 melanoma = system: SK-MEL-2 melanoma
RXF 393 renal = system: RXF 393 renal
NCI-H460 lung = system: NCI-H460 lung
U251 CNS = system: U251 CNS
UO-31 renal = system: UO-31 renal
M14 melanoma = system: M14 melanoma
SR leukemia = system: SR leukemia
DLD-1 colon = system: DLD-1 colon
LXFL 529 NSCLC = system: LXFL 529 NSCLC
CCRF-CEM leukemia = system: CCRF-CEM leukemia
MALME-3M melanoma = system: MALME-3M melanoma
COLO 205 colon = system: COLO 205 colon
DMS 273 small cell lung = system: DMS 273 small cell lung
ACHN renal = system: ACHN renal
RPMI-8226 leukemia = system: RPMI-8226 leukemia
UACC-257 melanoma = system: UACC-257 melanoma
SNB-75 CNS = system: SNB-75 CNS
K-562 leukemia = system: K-562 leukemia
SK-OV-3 ovarian = system: SK-OV-3 ovarian
SF-295 CNS = system: SF-295 CNS
NCI-H23 lung = system: NCI-H23 lung
SF-268 CNS = system: SF-268 CNS
RXF-631 renal = system: RXF-631 renal
A498 renal = system: A498 renal
TK-10 renal = system: TK-10 renal
OVCAR-4 ovarian = system: OVCAR-4 ovarian
KM20L2 colon = system: KM20L2 colon
SK-MEL-28 melanoma = system: SK-MEL-28 melanoma
KM12 colon = system: KM12 colon
XF 498 CNS = system: XF 498 CNS
EKVX NSCLC = system: EKVX NSCLC
OVCAR-3 ovarian = system: OVCAR-3 ovarian
M19-MEL melanoma = system: M19-MEL melanoma
HCT-116 colon = system: HCT-116 colon
NCI-H522 lung = system: NCI-H522 lung
SK-MEL-5 melanoma = system: SK-MEL-5 melanoma
CAKI-1 renal = system: CAKI-1 renal
HCC-2998 colon = system: HCC-2998 colon
SNB-78 CNS = system: SNB-78 CNS
UACC-62 melanoma = system: UACC-62 melanoma
HL-60(TB) leukemia = system: HL-60(TB) leukemia
786-0 renal = system: 786-0 renal
SF-539 CNS = system: SF-539 CNS
OVCAR-5 ovarian = system: OVCAR-5 ovarian
A549 NSCLC = system: A549 NSCLC
HOP-62 NSCLC = system: HOP-62 NSCLC
SW-620 colon = system: SW-620 colon
IGROV1 ovarian = system: IGROV1 ovarian
PC-3 prostate = system: PC-3 prostate
HCT-15 colon = system: HCT-15 colon
DU-145 prostate = system: DU-145 prostate
MDA-MB-435 = system: MDA-MB-435
SN12C renal = system: SN12C renal
MCF7 breast = system: MCF7 breast
T-47D breast = system: T-47D breast
MDA-N = system: MDA-N
BT-549 breast = system: BT-549 breast
NCI-H226 lung = system: NCI-H226 lung
HS 578T breast = system: HS 578T breast
HOP-92 NSCLC = system: HOP-92 NSCLC
HT29 colon = system: HT29 colon

O=C(NC1C2CC3CC(C2)CC1C3)c1cc(/C=C/c2ccccc2)[nH]c(=S)n1 (configuration not stated)
TGI (OVCAR-8 ovarian): > 100 µM
TGI (LOX IMVI melanoma): > 100 µM
TGI (MOLT-4 leukemia): > 100 µM
TGI (SNB-19 CNS): > 100 µM
TGI (DMS 114 small cell lung): > 100 µM
TGI (SK-MEL-2 melanoma): > 100 µM
TGI (RXF 393 renal): > 100 µM
TGI (NCI-H460 lung): > 100 µM
TGI (U251 CNS): > 100 µM
TGI (UO-31 renal): > 100 µM
TGI (M14 melanoma): > 100 µM
TGI (SR leukemia): > 100 µM
TGI (DLD-1 colon): > 100 µM
TGI (LXFL 529 NSCLC): > 100 µM
TGI (CCRF-CEM leukemia): > 100 µM
TGI (MALME-3M melanoma): > 100 µM
TGI (COLO 205 colon): > 100 µM
TGI (DMS 273 small cell lung): > 100 µM
TGI (ACHN renal): > 100 µM
TGI (RPMI-8226 leukemia): > 100 µM
TGI (UACC-257 melanoma): > 100 µM
TGI (SNB-75 CNS): > 100 µM
TGI (K-562 leukemia): > 100 µM
TGI (SK-OV-3 ovarian): > 100 µM
TGI (SF-295 CNS): > 100 µM
TGI (NCI-H23 lung): > 100 µM
TGI (SF-268 CNS): > 100 µM
TGI (RXF-631 renal): > 100 µM
TGI (A498 renal): > 100 µM
TGI (TK-10 renal): > 100 µM
TGI (OVCAR-4 ovarian): > 100 µM
TGI (KM20L2 colon): > 100 µM
TGI (SK-MEL-28 melanoma): > 100 µM
TGI (KM12 colon): > 100 µM
TGI (XF 498 CNS): > 100 µM
TGI (EKVX NSCLC): > 100 µM
TGI (OVCAR-3 ovarian): > 100 µM
TGI (M19-MEL melanoma): > 100 µM
TGI (HCT-116 colon): > 100 µM
TGI (NCI-H522 lung): > 100 µM
TGI (SK-MEL-5 melanoma): > 100 µM
TGI (CAKI-1 renal): > 100 µM
TGI (HCC-2998 colon): > 100 µM
TGI (SNB-78 CNS): > 100 µM
TGI (UACC-62 melanoma): > 100 µM
TGI (HL-60(TB) leukemia): > 100 µM
TGI (786-0 renal): > 100 µM
TGI (SF-539 CNS): > 100 µM
TGI (OVCAR-5 ovarian): > 100 µM
TGI (A549 NSCLC): > 100 µM
TGI (HOP-62 NSCLC): > 100 µM
TGI (SW-620 colon): > 100 µM
TGI (IGROV1 ovarian): > 100 µM

COc1ccc2nc3ccccc3c(NCCCN(C)CCCl)c2c1
TGI (OVCAR-8 ovarian): 2.02 µM
TGI (PC-3 prostate): 1.6 µM
TGI (LOX IMVI melanoma): 1.16 µM
TGI (MOLT-4 leukemia): 0.888 µM
TGI (SNB-19 CNS): 2.06 µM
TGI (HCT-15 colon): 8.29 µM
TGI (DMS 114 small cell lung): 1.68 µM
TGI (SK-MEL-2 melanoma): 1.81 µM
TGI (RXF 393 renal): 1.45 µM
TGI (NCI-H460 lung): 1.07 µM
TGI (U251 CNS): 1.71 µM
TGI (DU-145 prostate): 1.48 µM
TGI (UO-31 renal): 2.67 µM
TGI (M14 melanoma): 2.33 µM
TGI (SR leukemia): 0.146 µM
TGI (DLD-1 colon): 3.68 µM
TGI (LXFL 529 NSCLC): 1.53 µM
TGI (MDA-MB-435): 1.54 µM
TGI (CCRF-CEM leukemia): 1.58 µM
TGI (MALME-3M melanoma): 1.55 µM
TGI (COLO 205 colon): 1.65 µM
TGI (DMS 273 small cell lung): 1.36 µM
TGI (SN12C renal): 1.55 µM
TGI (ACHN renal): 0.695 µM
TGI (RPMI-8226 leukemia): 1.12 µM
TGI (UACC-257 melanoma): 2.24 µM
TGI (SNB-75 CNS): 1.47 µM
TGI (K-562 leukemia): 2.59 µM
TGI (SK-OV-3 ovarian): 3.34 µM
TGI (SF-295 CNS): 2.44 µM
TGI (NCI-H23 lung): 1.2 µM
TGI (SF-268 CNS): 2.75 µM
TGI (MCF7 breast): 1.46 µM
TGI (RXF-631 renal): 2.15 µM
TGI (A498 renal): 2.42 µM
TGI (T-47D breast): 0.467 µM
TGI (MDA-N): 2.02 µM
TGI (TK-10 renal): 4.08 µM
TGI (OVCAR-4 ovarian): 2.07 µM
TGI (KM20L2 colon): 2.5 µM
TGI (SK-MEL-28 melanoma): 2.01 µM
TGI (KM12 colon): 2.06 µM
TGI (XF 498 CNS): 0.77 µM
TGI (EKVX NSCLC): 3.15 µM
TGI (OVCAR-3 ovarian): 2.07 µM
TGI (M19-MEL melanoma): 1.9 µM
TGI (HCT-116 colon): 1.36 µM
TGI (NCI-H522 lung): 1.15 µM
TGI (SK-MEL-5 melanoma): 1.59 µM
TGI (CAKI-1 renal): 1.62 µM
TGI (BT-549 breast): 2.57 µM
TGI (NCI-H226 lung): 1.62 µM
TGI (HCC-2998 colon): 1.69 µM
TGI (SNB-78 CNS): 2.27 µM
TGI (UACC-62 melanoma): 2.05 µM
TGI (786-0 renal): 1.07 µM
TGI (SF-539 CNS): 1.29 µM
TGI (OVCAR-5 ovarian): 3.4 µM
TGI (HS 578T breast): 3.85 µM
TGI (HOP-92 NSCLC): 1.24 µM
TGI (A549 NSCLC): 2.42 µM
TGI (HOP-62 NSCLC): 3.05 µM
TGI (SW-620 colon): 1.48 µM
TGI (IGROV1 ovarian): 2.21 µM
TGI (HT29 colon): 2.66 µM

O=[N+]([O-])c1c(C=Nc2ccccc2)oc(-c2ccc3c(c2)OCO3)c1-c1ccc2c(c1)OCO2
TGI (OVCAR-8 ovarian): > 100 µM
TGI (LOX IMVI melanoma): > 100 µM
TGI (MOLT-4 leukemia): > 100 µM
TGI (SNB-19 CNS): > 100 µM
TGI (HCT-15 colon): > 100 µM
TGI (DMS 114 small cell lung): > 100 µM
TGI (RXF 393 renal): > 100 µM
TGI (NCI-H460 lung): > 100 µM
TGI (U251 CNS): > 100 µM
TGI (UO-31 renal): > 100 µM
TGI (M14 melanoma): > 100 µM
TGI (SR leukemia): > 100 µM
TGI (DLD-1 colon): > 100 µM
TGI (LXFL 529 NSCLC): > 100 µM
TGI (MALME-3M melanoma): > 100 µM
TGI (COLO 205 colon): > 100 µM
TGI (DMS 273 small cell lung): > 100 µM
TGI (SN12C renal): > 100 µM
TGI (ACHN renal): > 100 µM
TGI (RPMI-8226 leukemia): > 100 µM
TGI (UACC-257 melanoma): > 100 µM
TGI (SNB-75 CNS): > 100 µM
TGI (K-562 leukemia): > 100 µM
TGI (SK-OV-3 ovarian): > 100 µM
TGI (SF-295 CNS): > 100 µM
TGI (NCI-H23 lung): > 100 µM
TGI (SF-268 CNS): > 100 µM
TGI (RXF-631 renal): > 100 µM
TGI (TK-10 renal): > 100 µM
TGI (OVCAR-4 ovarian): > 100 µM
TGI (KM20L2 colon): > 100 µM
TGI (SK-MEL-28 melanoma): > 100 µM
TGI (KM12 colon): > 100 µM
TGI (XF 498 CNS): > 100 µM
TGI (OVCAR-3 ovarian): > 100 µM
TGI (M19-MEL melanoma): > 100 µM
TGI (HCT-116 colon): > 100 µM
TGI (NCI-H522 lung): > 100 µM
TGI (SK-MEL-5 melanoma): > 100 µM
TGI (CAKI-1 renal): > 100 µM
TGI (NCI-H226 lung): > 100 µM
TGI (HCC-2998 colon): > 100 µM
TGI (SNB-78 CNS): > 100 µM
TGI (UACC-62 melanoma): > 100 µM
TGI (HL-60(TB) leukemia): > 100 µM
TGI (786-0 renal): > 100 µM
TGI (SF-539 CNS): > 100 µM
TGI (OVCAR-5 ovarian): > 100 µM
TGI (HOP-92 NSCLC): > 100 µM
TGI (A549 NSCLC): > 100 µM
TGI (HOP-62 NSCLC): > 100 µM
TGI (SW-620 colon): > 100 µM
TGI (IGROV1 ovarian): > 100 µM
TGI (HT29 colon): > 100 µM
